Results from patent US9185914B2, “Substituted 5-(cyclohex-2-en-1-yl)-penta-2,4-dienes and 5-(cyclohex-2-en-1-yl)-pent-2-en-4-ines as active agents against abiotic stress in plants” (BAYER INTELLECTUAL PROPERTY GMBH, priority 2011, dated 2015).

Tests used:
Format in all cases: in vivo
Conditions in all cases: mean of three results
Triticum aestivum = experiment: Drought stress test, spray application to greenhouse plants (Triticum aestivum)
Experimental: (§1) Seeds of monocotyledonous and dicotyledonous crop plants were laid out in sandy loam in wood-fiber pots, covered with soil and cultivated in a greenhouse under good growth conditions. The test plants were treated at the early leaf stage (BBCH10-BBCH13). To ensure uniform water supply before commencement of stress, the potted plants were supplied with the maximum amount of water immediately beforehand by dam irrigation and, after application, transferred into plastic inserts in order to prevent subsequent, excessively rapid drying. The compounds according to the invention, formulated in the form of wettable powders (WP), wettable granules (WG), suspension concentrates (SC) or emulsion concentrates (EC), were sprayed onto the green parts of the plants as an aqueous suspension at an equivalent water application rate of 600 l/ha with addition of 0.2% wetting agent (agrotin). Substance application is followed immediately by stress treatment of the plants (cold or drought stress). For cold stress treatment, the plants were kept under the following controlled conditions: • “day”: 12 hours with illumination at 8° C. • “night”: 12 hours without illumination at 1° C.
(§2) Drought stress was induced by gradual drying out under the following conditions: • “day”: 14 hours with illumination at 26° C. • “night”: 10 hours without illumination at 18° C.
(§3) The duration of the respective stress phases was guided mainly by the state of the untreated (=treated with blank formulation but without test compound), stressed control plants and thus varied from crop to crop. It was ended (by re-irrigating or transfer to a greenhouse with good growth conditions) as soon as irreversible damage was observed on the untreated, stressed control plants. In the case of dicotyledonous crops, for example oilseed rape and soybeans, the duration of the drought stress phase varied between 3 and 5 days; in the case of monocotyledonous crops, for example wheat, barley or corn, it varied between 6 and 10 days. The duration of the cold stress phase varied between 12 and 14 days.
(§4) The end of the stress phase was followed by an approx. 5-7-day recovery phase, during which the plants were once again kept under good growth conditions in a greenhouse. In order to rule out any influence of the effects observed by any fungicidal action of the test compounds, it was additionally ensured that the tests proceeded without fungal infection and without infection pressure.
(§5) After the recovery phase had ended, the intensities of damage were rated visually in comparison to untreated, unstressed controls of the same age (in the case of drought stress) or the same growth stage (in the case of cold stress). The intensity of damage was first recorded as a percentage (100%=plants have died, 0%=like control plants). These values were then used to calculate the efficacy of the test compounds (=percentage reduction in the intensity of damage as a result of substance application) by the following formula:
(§6) [formula] EF: efficacy (%) DVus: damage value of the untreated, stressed control DVts: damage value of the plants treated with test compound
(§7) The tables below list mean values in each case from three results of the same test.
(§8) Efficacies of selected compounds of the formula (I) under drought stress: […]

Brassica napus = experiment: Drought stress test, spray application to greenhouse plants (Brassica napus)
Experimental: as §1, §2, §3, §4, §5, §6, §7, §8

Zea mays = experiment: Drought stress test, spray application to greenhouse plants (Zea mays)
Experimental: as §1, §2, §3, §4, §5, §6, §7, §8

Compound | EF (TRZAS), efficacy = percentage reduction in the intensity of damage (Triticum aestivum; dosage 250 g/ha) | EF (BRSNS), efficacy = percentage reduction in the intensity of damage (Brassica napus; dosage 250 g/ha) | further results
CCOC(=O)C=C(C=CC1(O)C(C)=CC(=O)CC1(C)C)C(C)C (centres unmarked) [I.1-86] | >5% | – | –
CC1=CC(=O)CC(C)(C)C1(O)C#C/C(=C\C(=O)O)C(F)(F)F (centres unmarked) [I.1-23, (2E)-5-(1-Hydroxy-2,6,6-trimethyl-4-oxocyclohex-2-en-1-yl)-3-(trifluoromethyl)pent-2-en-4-ynoic acid] | >5% | >5% | EF (ZEAMX), efficacy = percentage reduction in the intensity of damage (Zea mays; dosage 250 g/ha): >5%
CCOC(=O)C=C(C#CC1(O)C(C)=CC(=O)CC1(C)C)C1CCCC1 (centres unmarked) [I.1-122] | – | – | EF (TRZAS), efficacy = percentage reduction in the intensity of damage (Triticum aestivum; dosage 25 g/ha): >5%
CCCCCC(C=CC1(O)C(C)=CC(=O)CC1(C)C)=CC(=O)OCC (centres unmarked) [I.1-68] | – | >5% | –
CCOC(=O)/C=C(\C#CC1(O)C(C)=CC(=O)CC1(C)C)C(F)(F)F (centres unmarked) [I.1-14, Ethyl (2E)-5-(1-hydroxy-2,6,6-trimethyl-4-oxocyclohex-2-en-1-yl)-3-(trifluoromethyl)pent-2-en-4-ynoate] | – | – | EF (ZEAMX), efficacy = percentage reduction in the intensity of damage (Zea mays; dosage 25 g/ha): >5%
CCC(C#CC1(O)C(C)=CC(=O)CC1(C)C)=CC(=O)OC (centres unmarked) [I.1-142] | >5% | >5% | EF (ZEAMX), efficacy = percentage reduction in the intensity of damage (Zea mays; dosage 250 g/ha): >5%
CCOC(=O)C=C(C#CC1(O)C(C)=CC(=O)CC1(C)C)C(C)C (centres unmarked) [I.1-84] | – | – | EF (ZEAMX), efficacy = percentage reduction in the intensity of damage (Zea mays; dosage 250 g/ha): >5%
CCC(C#CC1(O)C(C)=CC(=O)CC1(C)C)=CC(=O)NC1CC1 (centres unmarked) [I.2-18] | – | >5% | EF (ZEAMX), efficacy = percentage reduction in the intensity of damage (Zea mays; dosage 25 g/ha): >5%
CCOC(=O)/C=C(\C=C\C1(O)C(C)=CC(=O)CC1(C)C)C(F)(F)F (centres unmarked) [I.1-16, Ethyl (2E,4E)-5-(1-hydroxy-2,6,6-trimethyl-4-oxocyclohex-2-en-1-yl)-3-(trifluoromethyl)penta-2,4-dienoate] | >5% | >5% | –
CC1=CC(=O)CC(C)(C)C1(O)C=CC(=CC(=O)O)C1CC1 (centres unmarked) [I.1-46] | >5% | >5% | EF (ZEAMX), efficacy = percentage reduction in the intensity of damage (Zea mays; dosage 250 g/ha): >5%
CCOC(=O)C=C(C=CC1(O)C(C)=CC(=O)CC1(C)C)CC (centres unmarked) [I.1-10] | >5% | >5% | EF (ZEAMX), efficacy = percentage reduction in the intensity of damage (Zea mays; dosage 250 g/ha): >5%
CCOC(=O)C=C(C=CC1(O)C(C)=CC(=O)CC1(C)C)C1CCCC1 (centres unmarked) [I.1-124] | >5% | – | –
CCC(C#CC1(O)C(C)=CC(=O)CC1(C)C)=CC(=O)NC(C)C (centres unmarked) [I.2-14] | – | – | EF (ZEAMX), efficacy = percentage reduction in the intensity of damage (Zea mays; dosage 25 g/ha): >5%
CCC/C(C#CC1(O)C(C)=CC(=O)CC1(C)C)=C/C(=O)OCC (centres unmarked) [I.1-2, Ethyl (2Z)-3-[(1-hydroxy-2,6,6-trimethyl-4-oxocyclohex-2-en-1-yl)ethynyl]hex-2-enoate] | >5% | >5% | –
CCOC(=O)C=C(C=CC1(O)C(C)=CC(=O)CC1(C)C)C1CC1 (centres unmarked) [I.1-116] | >5% | >5% | –
CCC(C=CC1(O)C(C)=CC(=O)CC1(C)C)=CC(=O)OC (centres unmarked) [I.1-144] | – | – | EF (BRSNS), efficacy = percentage reduction in the intensity of damage (Brassica napus; dosage 25 g/ha): >5%; EF (TRZAS), efficacy = percentage reduction in the intensity of damage (Triticum aestivum; dosage 25 g/ha): >5%
CCCCCCC(C=CC1(O)C(C)=CC(=O)CC1(C)C)=CC(=O)OCC (centres unmarked) [I.1-74] | – | >5% | –
CCOC(=O)C=C(C#CC1(O)C(C)=CC(=O)CC1(C)C)CC (centres unmarked) [I.1-8] | >5% | >5% | –
CCOC(=O)C=C(C=CC1(O)C(C)=CC(=O)CC1(C)C)C(C)(C)C (centres unmarked) [I.1-92] | >5% | – | EF (ZEAMX), efficacy = percentage reduction in the intensity of damage (Zea mays; dosage 250 g/ha): >5%
CCCCCCC(C#CC1(O)C(C)=CC(=O)CC1(C)C)=CC(=O)OCC (centres unmarked) [I.1-72] | – | >5% | –
CCOC(=O)C=C(C#CC1(O)C(C)=CC(=O)CC1(C)C)C1CC1 (centres unmarked) [I.1-114] | >5% | >5% | –
CCCC(=C/C(=O)OCC)/C=C/C1(O)C(C)=CC(=O)CC1(C)C (centres unmarked) [I.1-4, Ethyl (2Z)-3-[(E)-2-(1-hydroxy-2,6,6-trimethyl-4-oxocyclohex-2-en-1-yl)vinyl]hex-2-enoate] | >5% | >5% | –
CCCCC(C#CC1(O)C(C)=CC(=O)CC1(C)C)=CC(=O)OCC (centres unmarked) [I.1-60] | >5% | >5% | –
CCC(C=CC1(O)C(C)=CC(=O)CC1(C)C)=CC(=O)O (centres unmarked) [I.1-20] | >5% | >5% | EF (ZEAMX), efficacy = percentage reduction in the intensity of damage (Zea mays; dosage 250 g/ha): >5%
